Test results: patent US20260297080A1, “BICYCLIC COMPOUNDS AS CDK INHIBITORS” (BeOne Medicines I GmbH, priority 2022, published 2026)

Legend:
CDK2/Cyclin E1 = CDK2/Cyclin E1 (Homo sapiens, UniProt P24941); test: CDK2/Cyclin E1 Biochemical Assay (TR-FRET), 0.060 mM ATP; settings: 0.15 μM Rb (Ser780)-biotin substrate, pH7.0, 60 min preincubation, 120 min reaction, room temperature
Experimental: (§1) CDK2/Cyclin E1 and CDK1/Cyclin B1 Biochemical Assays
(§2) Compounds disclosed herein were tested for inhibition of CDK2/Cyclin E1 or CDK1/Cyclin B1 kinase in an assay based on the time-resolved fluorescence-resonance energy transfer (TR-FRET) methodology. The assay was carried out in 384-well low volume black plates in a reaction mixture containing CDK2/Cyclin E1 or CDK1/Cyclin B1, 0.060 mM ATP for CDK2/Cyclin E1 or 0.015 mM ATP for CDK1/Cyclin B1, 0.15 μM Rb (Ser780)-biotin substrate and 0-10 μM compound in buffer containing 50 mM HEPES pH7.0, 0.02% NaN3, 0.01% BSA, 0.1 mM Orthovanadate, 50 mM MgCl2, 1 mM DTT and 0.005% Tween-20. The kinase was incubated with compound for 60 minutes at room temperature and the reaction was initiated by the addition of ATP and Rb (Ser780)-biotin substrate. After reaction at room temperature for 120 minutes, an equal volume of stop/detection solution was added according to the manufacture's instruction (Cisbio Bioassays). The stop/detection solution contained Streptavidin-XL665 and Anti-pRb (Ser780) mAb-Eu Cryptate in Detection buffer (Cisbio Bioassays). Plates were incubated at room temperature for 60 minutes, and the TR-FRET signals (ex337 nm, em665 nm/620 nm) were recorded on a PHERAstar FSX plate reader (BMG Labtech). The inhibition percentage of CDK2/Cyclin E1 or CDK1/Cyclin B1 kinase activity in presence of increasing concentrations of compounds was calculated based on the ratio of fluorescence at 665 nm to that at 620 nm. The IC50 for each compound was derived from fitting the data to the four-parameter logistic equation by Dotmatics.

CDK1/Cyclin B1 = CDK1/Cyclin B1 (Homo sapiens, UniProt P06493); test: CDK1/Cyclin B1 Biochemical Assay (TR-FRET), 0.015 mM ATP; settings: 0.15 μM Rb (Ser780)-biotin substrate, pH7.0, 60 min preincubation, 120 min reaction, room temperature
Experimental: as §1, §2

CDK1/Cyclin B1, sequence (P06493 whole entry): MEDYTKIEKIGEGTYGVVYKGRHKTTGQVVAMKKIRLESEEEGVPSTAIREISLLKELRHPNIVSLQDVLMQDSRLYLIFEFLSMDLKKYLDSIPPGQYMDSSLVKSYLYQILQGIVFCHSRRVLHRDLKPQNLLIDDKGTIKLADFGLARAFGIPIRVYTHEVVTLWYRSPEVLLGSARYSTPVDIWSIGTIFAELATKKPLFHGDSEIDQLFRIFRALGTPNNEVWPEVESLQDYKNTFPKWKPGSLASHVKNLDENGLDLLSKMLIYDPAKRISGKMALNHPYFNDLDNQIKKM
CDK1/Cyclin B1, sequence (P14635 whole entry partner): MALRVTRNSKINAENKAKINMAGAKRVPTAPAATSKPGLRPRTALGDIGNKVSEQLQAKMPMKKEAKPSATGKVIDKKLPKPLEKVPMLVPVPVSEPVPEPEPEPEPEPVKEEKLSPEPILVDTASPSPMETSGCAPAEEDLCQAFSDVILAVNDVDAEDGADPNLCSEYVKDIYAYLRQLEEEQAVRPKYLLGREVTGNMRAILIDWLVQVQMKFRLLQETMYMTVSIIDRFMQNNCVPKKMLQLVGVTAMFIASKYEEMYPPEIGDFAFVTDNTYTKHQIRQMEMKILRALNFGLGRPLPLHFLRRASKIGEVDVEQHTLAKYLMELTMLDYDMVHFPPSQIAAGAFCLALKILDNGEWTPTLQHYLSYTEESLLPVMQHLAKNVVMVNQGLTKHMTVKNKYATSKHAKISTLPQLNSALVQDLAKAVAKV

| Structure (SMILES) | IC50 (CDK2/Cyclin E1) [nM] | IC50 (CDK1/Cyclin B1) [nM] |
| --- | --- | --- |
| CC(C)NC(=O)O[C@H]1CC[C@@H](c2cc(Nc3cc4c(cc3C(F)(F)F)S(=O)(=O)NC4)n[nH]2)C1 (relative stereo) [Example 20, cis-3-(3-((1,1-dioxido-6-(trifluoromethyl)-2,3-dihydrobenzo[d]isothiazol-5-yl)amino)-1H-pyrazol-5-yl)cyclopentyl isopropylcarbamate] | 931 | > 10000 |
| CC(C)NC(=O)O[C@H]1CC[C@@H](c2cc(Nc3cc4c(cc3C(F)(F)F)S(=O)(=O)NC4(C)C)n[nH]2)C1 (relative stereo) [Example 21, cis-3-(3-((3,3-dimethyl-1,1-dioxido-6-(trifluoromethyl)-2,3-dihydrobenzo[d]isothiazol-5-yl)amino)-1H-pyrazol-5-yl)cyclopentyl isopropylcarbamate] | > 10000 | > 10000 |
| CC(C)NC(=O)O[C@H]1CC[C@@H](c2cc(Nc3ccc4c(c3C(F)(F)F)CNS4(=O)=O)n[nH]2)C1 (relative stereo) [Example 22, cis-3-(3-((1,1-dioxido-4-(trifluoromethyl)-2,3-dihydrobenzo[d]isothiazol-5-yl)amino)-1H-pyrazol-5-yl)cyclopentyl isopropylcarbamate] | 202 | > 10000 |
| COc1cc2c(cc1Nc1cc([C@@H]3CC[C@H](OC(=O)NC(C)C)C3)[nH]n1)C(C)(C)NS2(=O)=O (relative stereo) [Example 23, cis-3-(3-((6-methoxy-3,3-dimethyl-1,1-dioxido-2,3-dihydrobenzo[d]isothiazol-5-yl)amino)-1H-pyrazol-5-yl)cyclopentyl isopropylcarbamate] | 244 | 1170 |
| Cc1cc2c(cc1Nc1cc([C@@H]3CC[C@H](OC(=O)NC(C)C)C3)[nH]n1)CNS2(=O)=O (relative stereo) [Example 25, cis-3-(3-((6-methyl-1,1-dioxido-2,3-dihydrobenzo[d]isothiazol-5-yl)amino)-1H-pyrazol-5-yl)cyclopentyl isopropylcarbamate] | 11 | 271 |
| Cc1cc(Nc2cc([C@@H]3CC[C@H](OC(=O)NC(C)C)C3)[nH]n2)cc2c1S(=O)(=O)NC2 (relative stereo) [Example 26, cis-3-(3-((7-methyl-1,1-dioxido-2,3-dihydrobenzo[d]isothiazol-5-yl)amino)-1H-pyrazol-5-yl)cyclopentyl isopropylcarbamate] | 2 | 60 |
| CC(C)NC(=O)O[C@H]1CC[C@@H](c2cc(Nc3cc4c(cc3Cl)S(=O)(=O)NC4)n[nH]2)C1 (relative stereo) [Example 27, cis-3-(3-((6-chloro-1,1-dioxido-2,3-dihydrobenzo[d]isothiazol-5-yl)amino)-1H-pyrazol-5-yl)cyclopentyl isopropylcarbamate] | 33 | 958 |
| CC(C)NC(=O)O[C@H]1CC[C@@H](c2cc(Nc3c(F)cc4c(c3F)CNS4(=O)=O)n[nH]2)C1 (relative stereo) [Example 30, cis-3-(3-((4,6-difluoro-1,1-dioxido-2,3-dihydrobenzo[d]isothiazol-5-yl)amino)-1H-pyrazol-5-yl)cyclopentyl isopropylcarbamate] | 7.2 | 544 |
| CC(C)NC(=O)O[C@H]1CC[C@@H](c2cc(Nc3cnc4c(c3)CNS4(=O)=O)n[nH]2)C1 (relative stereo) [Example 31, cis-3-(3-((1,1-dioxido-2,3-dihydroisothiazolo[5,4-b]pyridin-5-yl)amino)-1H-pyrazol-5-yl)cyclopentyl isopropylcarbamate] | 7 | 166 |
| CC(C)NC(=O)O[C@H]1CC[C@@H](c2cc(Nc3cnc4c(c3)CN(C)S4(=O)=O)n[nH]2)C1 (relative stereo) [Example 32, cis-3-(3-((2-methyl-1,1-dioxido-2,3-dihydroisothiazolo[5,4-b]pyridin-5-yl)amino)-1H-pyrazol-5-yl)cyclopentyl isopropylcarbamate] | 21 | 424 |
| Cc1c(Nc2cc([C@@H]3CC[C@H](OC(=O)NC(C)C)C3)[nH]n2)ccc2c1CN(C)S2(=O)=O (relative stereo) [Example 35, cis-3-(3-((2,4-dimethyl-1,1-dioxido-2,3-dihydrobenzo[d]isothiazol-5-yl)amino)-1H-pyrazol-5-yl)cyclopentyl isopropylcarbamate] | 8.9 | 296 |

The next lines start with the values.

| IC50 (CDK2/Cyclin E1) [nM] | IC50 (CDK1/Cyclin B1) [nM] | Structure (SMILES) |
| --- | --- | --- |
| 887 | 9960 | COc1c(Nc2cc([C@@H]3CC[C@H](OC(=O)NC(C)C)C3)[nH]n2)ccc2c1C(C)(C)NS2(=O)=O (relative stereo) [Example 24, cis-3-(3-((4-methoxy-3,3-dimethyl-1,1-dioxido-2,3-dihydrobenzo[d]isothiazol-5-yl)amino)-1H-pyrazol-5-yl)cyclopentyl isopropylcarbamate] |
| 1260 | > 10000 | CC(C)NC(=O)O[C@H]1CC[C@@H](c2cc(Nc3cc4c(cc3OC(F)(F)F)S(=O)(=O)NC4)n[nH]2)C1 (relative stereo) [Example 28, cis-3-(3-((1,1-dioxido-6-(trifluoromethoxy)-2,3-dihydrobenzo[d]isothiazol-5-yl)amino)-1H-pyrazol-5-yl)cyclopentyl isopropylcarbamate] |
| 2.2 | 113 | CC(C)NC(=O)O[C@H]1CC[C@@H](c2cc(Nc3cc(F)c4c(c3)CNS4(=O)=O)n[nH]2)C1 (relative stereo) [Example 29, cis-3-(3-((7-fluoro-1,1-dioxido-2,3-dihydrobenzo[d]isothiazol-5-yl)amino)-1H-pyrazol-5-yl)cyclopentyl isopropylcarbamate] |
| 1.8 | 38 | CC(C)NC(=O)O[C@H]1CC[C@@H](c2cc(Nc3ccc4c(n3)CNS4(=O)=O)n[nH]2)C1 (relative stereo) [Example 33, cis-3-(3-((1,1-dioxido-2,3-dihydroisothiazolo[4,5-b]pyridin-5-yl)amino)-1H-pyrazol-5-yl)cyclopentyl isopropylcarbamate] |
| 1.9 | 81 | Cc1c(Nc2cc([C@@H]3CC[C@H](OC(=O)NC(C)C)C3)[nH]n2)ccc2c1CNS2(=O)=O (relative stereo) [Example 34, cis-3-(3-((4-methyl-1,1-dioxido-2,3-dihydrobenzo[d]isothiazol-5-yl)amino)-1H-pyrazol-5-yl)cyclopentyl isopropylcarbamate] |
| 18 | 329 | COCCN1Cc2c(ccc(Nc3cc([C@@H]4CC[C@H](OC(=O)NC(C)C)C4)[nH]n3)c2C)S1(=O)=O (relative stereo) [Example 36, cis-3-(3-((2-(2-methoxyethyl)-4-methyl-1,1-dioxido-2,3-dihydrobenzo[d]isothiazol-5-yl)amino)-1H-pyrazol-5-yl)cyclopentyl isopropylcarbamate] |
| 7.2 | 313 | Cc1c(Nc2cc([C@@H]3CC[C@H](OC(=O)NC(C)C)C3)[nH]n2)ccc2c1CN(CCO)S2(=O)=O (relative stereo) [Example 37, cis-3-(3-((2-(2-hydroxyethyl)-4-methyl-1,1-dioxido-2,3-dihydrobenzo[d]isothiazol-5-yl)amino)-1H-pyrazol-5-yl)cyclopentyl isopropylcarbamate] |
